Read-outs that look alike come from different tables or passages of the source.
What was measured:
[1] = tested on: Key Grass and Sedge Weeds as well as Grass Crops; experiment: Post-emergent Test II herbicidal activity (Table 16); type: in vivo; details: post-emergence, 336 h, 14 days after application; for pest or weed control at 35 g/ha: 35 g ai/ha; for pest or weed control at 70 g/ha: 70 g ai/ha; for pest or weed control at 140 g/ha: 140 g ai/ha
Summary of the method: (§1)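 Visual injury rating (0 = none, 100% = complete kill) made 14 d after treatment, relative to untreated plants. Compounds in an acetone/DMSO/aqueous crop-oil/surfactant spray, at top rate and serial 1/2×-1/16× rates, were applied at 187 L/ha overhead to first-second true leaf plants raised 7-21 d in greenhouse.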

[2] = tested on: Key Broadleaf Weed and Crop Species; experiment: Post-emergent Test II herbicidal activity (Table 15); type: in vivo; details: post-emergence, 336 h, 14 d; for pest or weed control at 35 g/ha: 35 g ai/ha; for pest or weed control at 70 g/ha: 70 g ai/ha; for pest or weed control at 140 g/ha: 140 g ai/ha
Summary of the method: as §1

[3] = Cyperus esculentus, yellow nutsedge (Cyperus esculentus), read-out: Visual Growth Reduction (%) 14 Days After Application CYPES
[4] = Echinochloa crus-galli, barnyardgrass (Echinochloa crus-galli), read-out: Visual Growth Reduction (%) 14 Days After Application ECHCG
[5] = Oryza sativa, rice (Oryza sativa), read-out: Visual Growth Reduction (%) 14 Days After Application ORYSA
[6] = Setaria faberi, giant foxtail (Setaria faberi), read-out: Visual Growth Reduction (%) 14 Days After Application SETFA
[7] = Triticum aestivum, wheat, spring (Triticum aestivum), read-out: Visual Growth Reduction (%) 14 Days After Application TRZAS
[8] = Zea mays, maize, corn (Zea mays), read-out: Visual Growth Reduction (%) 14 Days After Application ZEAMX
[9] = Abutilon theophrasti, velvetleaf (Abutilon theophrasti), read-out: Visual Growth Reduction (%) 14 Days After Application, ABUTH
[10] = Amaranthus retroflexus, redroot pigweed (Amaranthus retroflexus), read-out: Visual Growth Reduction (%) 14 Days After Application, AMARE
[11] = Brassica napus, oilseed rape, canola (Brassica napus), read-out: Visual Growth Reduction (%) 14 Days After Application, BRSNN
[12] = Chenopodium album, lambsquarters (Chenopodium album), read-out: Visual Growth Reduction (%) 14 Days After Application, CHEAL
[13] = Euphorbia heterophylla, wild poinsettia (Euphorbia heterophylla), read-out: Visual Growth Reduction (%) 14 Days After Application, EPHHL
[14] = Helianthus annuus, sunflower (Helianthus annuus), read-out: Visual Growth Reduction (%) 14 Days After Application, HELAN

SMILES | melting point [°C] | pest or weed control at 35 g/ha [1, 3] [%] | pest or weed control at 70 g/ha [1, 3] [%] | pest or weed control at 140 g/ha [1, 3] [%] | pest or weed control at 35 g/ha [1, 4] [%] | pest or weed control at 70 g/ha [1, 4] [%] | pest or weed control at 140 g/ha [1, 4] [%] | pest or weed control at 35 g/ha [1, 5] [%] | pest or weed control at 70 g/ha [1, 5] [%] | pest or weed control at 140 g/ha [1, 5] [%] | pest or weed control at 35 g/ha [1, 6] [%] | pest or weed control at 70 g/ha [1, 6] [%] | pest or weed control at 140 g/ha [1, 6] [%] | pest or weed control at 35 g/ha [1, 7] [%] | pest or weed control at 70 g/ha [1, 7] [%] | pest or weed control at 140 g/ha [1, 7] [%] | pest or weed control at 35 g/ha [1, 8] [%] | pest or weed control at 70 g/ha [1, 8] [%] | pest or weed control at 140 g/ha [1, 8] [%] | pest or weed control at 35 g/ha [2, 9] [%] | also measured
Nc1cc(-c2ccc3ccsc3c2)nc(C(=O)O)c1Cl [Compound 3.16] | 176 to 177 | 0 to 29 | 0 to 29 | 45 to 59 | 75 to 84 | 75 to 84 | 75 to 84 | 0 to 29 | 0 to 29 | 0 to 29 | 0 to 29 | 0 to 29 | 0 to 29 | 0 to 29 | 0 to 29 | 0 to 29 | 60 to 74 | 60 to 74 | 75 to 84 | 60 to 74 | pest or weed control at 70 g/ha [2, 9]: 60 to 74%; pest or weed control at 140 g/ha [2, 9]: 75 to 84%; pest or weed control at 35 g/ha [2, 10]: 85 to 94%; pest or weed control at 70 g/ha [2, 10]: 95 to 100%; pest or weed control at 140 g/ha [2, 10]: 85 to 94%; pest or weed control at 35 g/ha [2, 11]: 0 to 29%; pest or weed control at 70 g/ha [2, 11]: 0 to 29%; pest or weed control at 140 g/ha [2, 11]: 45 to 59%; pest or weed control at 35 g/ha [2, 12]: 85 to 94%; pest or weed control at 70 g/ha [2, 12]: 85 to 94%; pest or weed control at 140 g/ha [2, 12]: 85 to 94%; pest or weed control at 35 g/ha [2, 13]: 60 to 74%; pest or weed control at 70 g/ha [2, 13]: 60 to 74%; pest or weed control at 140 g/ha [2, 13]: 60 to 74%; pest or weed control at 35 g/ha [2, 14]: 0 to 29%; pest or weed control at 70 g/ha [2, 14]: 0 to 29%; pest or weed control at 140 g/ha [2, 14]: 0 to 29%
COC(=O)c1nc(-c2ccc3ccsc3c2)c(F)c(N)c1Cl [Compound 3.12] | 185 to 189 | 0 to 29 | 0 to 29 | 0 to 29 | 85 to 94 | 85 to 94 | 85 to 94 | 0 to 29 | 0 to 29 | 0 to 29 | 0 to 29 | 0 to 29 | 0 to 29 | 0 to 29 | 0 to 29 | 0 to 29 | 95 to 100 | 95 to 100 | 95 to 100 | 60 to 74 | pest or weed control at 70 g/ha [2, 9]: 95 to 100%; pest or weed control at 140 g/ha [2, 9]: 95 to 100%; pest or weed control at 35 g/ha [2, 10]: 60 to 74%; pest or weed control at 70 g/ha [2, 10]: 60 to 74%; pest or weed control at 140 g/ha [2, 10]: 85 to 94%; pest or weed control at 35 g/ha [2, 11]: 0 to 29%; pest or weed control at 70 g/ha [2, 11]: 0 to 29%; pest or weed control at 140 g/ha [2, 11]: 30 to 44%; pest or weed control at 35 g/ha [2, 12]: 95 to 100%; pest or weed control at 70 g/ha [2, 12]: 95 to 100%; pest or weed control at 140 g/ha [2, 12]: 95 to 100%; pest or weed control at 35 g/ha [2, 13]: 60 to 74%; pest or weed control at 70 g/ha [2, 13]: 60 to 74%; pest or weed control at 140 g/ha [2, 13]: 85 to 94%; pest or weed control at 35 g/ha [2, 14]: 85 to 94%; pest or weed control at 70 g/ha [2, 14]: 85 to 94%; pest or weed control at 140 g/ha [2, 14]: 85 to 94%
